# Data taken from US20170119727A1, “A THERAPEUTIC PROTOCOL FOR TREATING OVARIAN CANCER” (Bionomics Limited, priority 2014, published 2017).
# Assays:
# [1] = test system: Human umbilical vein endothelial cells (HUVECs), tumour type activated endothelial cells; assay: Proliferation assay - activated endothelium (MTT); format: cell-based; conditions: for potency against activated (tumor) versus quiescent (normal) endothelial cells: activated compared with quiescent endothelial cells; for IC50: Homo sapiens, HUVEC, tumour type activated endothelial cells (HUVECs), 48 hrs, read-out: HUBECs Tum: IC50
# Description: Proliferation Assay—Activated Endothelium:
# (§1) Human umbilical vein endothelial cells (CC-2519, Clonetics) were plated at 2500 cells/well in EGM2 (CC-3162, Clonetics) in a 96 well plate in triplicate. Cells were cultured overnight at 37° C. 5% CO2. Medium was subsequently replaced with fresh medium including the compound or negative control. Cells were cultured for a period of 48 hrs. An MTT assay was performed to measure changes in cell numbers. Briefly, 20 μl of MTT reagent was added to cells containing 100 μl of EGM2 and incubated at 37° C. for 2 hours. Absorbance was measured at 492 nm.
# MCF-7 = assay: Growth inhibition of cancer cell line (Sulforhodamine B or Systmex cell counting assay); format: cell-based; conditions: Homo sapiens, MCF7, concentration required to inhibit net cell growth by 50%
# [2] = test system: Human umbilical vein endothelial cells (HUVECs), normal quiescent type endothelial cells; assay: Proliferation assay - quiescent endothelium (MTT); format: cell-based; conditions: HUVEC, 48 hrs, read-out: HUBECs Norm: IC50
# Description: Proliferation Assay—Quiescent Endothelium:
# as §1, with “15000” for “2500”, “EBM2 (CC-3156, Clonetics)+0.5% FBS (CC-4101A, Clonetics)+GA-1000 (CC-4381A,” for “EGM2 (CC-3162,”, “EBM2+0.5% FBS” for “EGM2”
# tubulin = assay: Tubulin polymerization inhibition; format: biochemical
# recurrent ovarian cancer = assay: Phase I clinical trial: objective response (CA125 or RECIST); format: in vivo, female ovarian cancer subjects (patients); conditions: combination with carboplatin and gemcitabine
# Source text: (§2) A standard 3+3 Phase I design was used to determine the recommended dose of compound Example 2 with combination partners (b) and (c). In addition, this design also facilitated the determination of secondary endpoints including progression-free survival (PFS) and adverse event rates. Further correlative endpoints that measure the effect of the drug combination on compound Example 2 pharmacokinetics (PK) were also captured in this trial design.
# (§3) The patient cohort selected for this Phase I clinical trial were female ovarian cancer subjects with a PFS interval of ≧4 months after first or second line platinum-based chemotherapy.
# (§4) The dosing regime is outlined in FIG. 4. This protocol included compound Example 2 escalation at 12 or 16 mg/m^2 IV on days 2 and 9, carboplatin AUC4 on day 1, gemcitabine escalation 800 and 1000 mg/m^2 days 1 and 8. Treatment proceeded across a 21 day cycle for a maximum of 6 cycles. Treatment was followed by single agent maintenance with compound Example 2 at 16 mg/m^2 for a maximum of 6 additional cycles.
# (§5) The key outcomes of this trial include the identification of the maximum tolerated dose (MTD) of compound Example 2 and combination partners (b) and (c), dose limiting toxicities and patient response measured according to CA125 levels or RECIST. Additional plasma biomarker studies that measure concentrations of ferritin, interleukin-8, interleukin-16 and macrophage inflammatory protein-1β provide correlative data relating to the PK of compound Example 2.
# [3] = test system: MDA-MB-231 solid orthotopic tumours; assay: Tumour growth inhibition, single agent; format: in vivo, Balb/c nu/nu mice; conditions: Example 2 40 mg/kg i.v., two cycles; vs vehicle; significant from day 4 (p<0.001) through Day 70
# Description: Balb/c nu/nu mice bearing MDA-MB-231 solid orthotopic tumours were treated with compound Example 2 at 40 mg/kg. Animals were i.v. dosed with a total of two cycles of Example 2 treatment. Each cycle was dosing on […] followed by a three week no-dosing period. Tumour growth represented as a ratio to initial tumour volume is shown over a total of 72-days.
# Tumour growth as well as animal health were monitored for up to 72 days post-day 1 of treatment. […] Significant differences in tumour growth between Example 2 treated (n=64) and vehicle treated (n=20) animals were observed as early as day 4 (p<0.001; unpaired t-test; Prism® analysis) through to Day 70.
# [4] = test system: cisplatin resistant A2780Cis solid orthotopic tumours; assay: Tumour growth inhibition, combination with carboplatin and gemcitabine; format: in vivo, Balb/c nu/nu mice; conditions: Example 2 24 mg/kg + carboplatin 50 mg/kg + gemcitabine 12.5 mg/kg i.v.; triplet compared to carboplatin/gemcitabine doublet; up to 21 days
# Description: (a) Example 2 Treatment in Combination with Carboplatin (Combination Partner (b)) and Gemcitabine (Combination Partner (c)).
# Balb/c nu/nu mice bearing cisplatin resistant A2780Cis solid orthotopic tumours were treated with compound Example 2 at 24 mg/kg, carboplatin at 50 mg/kg and gemcitabine at 12.5 mg/kg. Animals were i.v. dosed with a single dose of carboplatin, two weekly doses of Example 2 and two weekly doses of gemcitabine. Each cycle of Example 2 and gemcitabine was dosing on days 1 and 8; and each cycle of carboplatin was dosing on day 1.
# Tumour growth as well as animal health were monitored for up to 21 days post-day 1 of treatment.
# [5] = Phase I clinical trial: dose limiting toxicities, adverse events, recommended dose; format: in vivo, female ovarian cancer subjects (patients)
# Source text: as §2, §3, §4, §5
# [6] = Dose level 1 (n = 6), combination with carboplatin and gemcitabine, all cycles
# [7] = Dose level 2a (n = 3), combination with carboplatin and gemcitabine, all cycles
# [8] = Dose level 2b (n = 60 as printed), combination with carboplatin and gemcitabine, all cycles
compound,measurement,setting,value
COc1ccc(/C=C\c2cc(OC)c(OC)c(OC)c2)cc1O [Combretastatin A4],potency against activated (tumor) versus quiescent (normal) endothelial cells,[1],equally potent against quiescent and activated endothelial cells
COc1ccc(/C=C\c2cc(OC)c(OC)c(OC)c2)cc1O [Comparator A],IC50,MCF-7,5 nM
same,IC50,[1],1 to 10 nM
same,IC50,[2],1 to 10 nM
COc1ccc(/C=C\c2cc(OC)c(OC)c(OC)c2)cc1OP(=O)(O)O [Comparator B],IC50,MCF-7,5 nM
same,IC50,[1],1 to 10 nM
same,IC50,[2],1 to 10 nM
COc1ccc2c(C(=O)c3cc(OC)c(OC)c(OC)c3)coc2c1 [Comparator C],IC50,MCF-7,55 nM
same,IC50,[1],10 to 100 nM
same,IC50,[2],10 to 100 nM
COc1ccc2c(C(=O)c3cc(OC)c(OC)c(OC)c3)c(Br)oc2c1 [Comparator D],IC50,MCF-7,500 nM
same,IC50,[1],100 to 1000 nM
same,IC50,[2],100 to 1000 nM
"COc1cc(C(=O)c2c(C)oc3c(O)c(OC)ccc23)cc(OC)c1OC [Example 1, 2-Methyl-7-hydroxy-3-(3,4,5-trimethoxybenzoyl)-6-methoxybenzofuran]",IC50,MCF-7,2 nM
same,IC50,[1],0.1 to 1 nM
same,potency against activated (tumor) versus quiescent (normal) endothelial cells,[1],high potency towards tumor endothelial cells (activated) over normal endothelial cells (quiescent)
same,IC50,[2],10 to 100 nM
same,tubulin polymerization inhibition,tubulin,potent tubulin polymerization inhibitor
"COc1cc(C(=O)c2c(C)oc3c(OP(=O)([O-])[O-])c(OC)ccc23)cc(OC)c1OC.[Na+].[Na+] [Example 2, Disodium 6-methoxy-2-methyl-3-(3,4,5-trimethoxybenzoyl)benzofuran-7-yl phosphate]",Objective responses (CA125 or RECIST) %,"recurrent ovarian cancer; Dose level 1, 6 accrued",68%
same,Objective responses (CA125 or RECIST) N,"recurrent ovarian cancer; Dose level 1, 6 accrued",4
same,Objective responses (CA125 or RECIST) %,"recurrent ovarian cancer; Dose level 2a, 3 accrued",33%
same,Objective responses (CA125 or RECIST) N,"recurrent ovarian cancer; Dose level 2a, 3 accrued",1
same,Objective responses (CA125 or RECIST) %,"recurrent ovarian cancer; Dose level 2b, 6 accrued",83%
same,Objective responses (CA125 or RECIST) N,"recurrent ovarian cancer; Dose level 2b, 6 accrued",5
same,Objective responses (CA125 or RECIST) %,"recurrent ovarian cancer; all dose levels, 15 accrued",68%
same,Objective responses (CA125 or RECIST) N,"recurrent ovarian cancer; all dose levels, 15 accrued",10
same,Tumour growth (ratio to initial tumour volume),[3],tumour growth inhibition
same,Tumour growth (tumor volume),[4],tumour growth inhibition
same,Hypertension Gr 3,[5]; [6],1
same,Neutropenia Gr 3,[5]; [6],3
same,Neutropenia Gr 4,[5]; [6],2
same,Number of DLTs,"[5]; Dose level 1: Example 2 12 mg/m2 + carboplatin AUC4 + gemcitabine 800 mg/m2, 6 patients",1
same,Hypersensitivity Gr 3,[5]; [7],1
same,Neutropenia Gr 3,[5]; [7],1
same,Neutropenia Gr 4,[5]; [7],2
same,Thrombocytopenia Gr 4,[5]; [7],2
same,Number of DLTs,"[5]; Dose level 2a: Example 2 16 mg/m2 + carboplatin AUC4 + gemcitabine 800 mg/m2, 3 patients",2
same,Anaemia Gr 3,[5]; [8],1
same,Neutropenia Gr 3,[5]; [8],5
same,Thrombocytopenia Gr 3,[5]; [8],2
same,adverse events or dose limiting toxicities,[5]; Dose level 2b: Example 2 12 mg/m2 + carboplatin AUC4 + gemcitabine 1000 mg/m2,no adverse events or dose limiting toxicities were observed
same,Number of DLTs,"[5]; Dose level 2b: Example 2 12 mg/m2 + carboplatin AUC4 + gemcitabine 1000 mg/m2, 6 patients",0
same,safety and tolerability,"[5]; combination with combination partners (b) carboplatin and (c) gemcitabine, subjects with recurrent ovarian cancer",safe and tolerable
same,recommended dose,[5]; with carboplatin AUC4 and gemcitabine 1000 mg/m^2 (dose level 2b),12 mg/m^2
